This experiment addresses HIV-1 RT (Human immunodeficiency virus type 1 group M subtype B, UniProt P03366). The experiment in a line: HIV Reverse Transcriptase Assay: Inhibitor IC50 Determination. Format: biochemical. Conditions: purified recombinant enzyme, poly(rA)/oligo(dT)16 template-primer, [3H] dTTP, 37° C. for 30 min; read-out: RT inhibition IC50. Here is the method: HIV Reverse Transcriptase Assay: Inhibitor IC50 Determination
HIV-1 RT assay was carried out in 96-well Millipore MultiScreen MADVNOB50 plates using purified recombinant enzyme and a poly(rA)/oligo(dT)16 template-primer in a total volume of 50 μL. The assay constituents were 50 mM Tris/HCl, 50 mM NaCl, 1 mM EDTA, 6 mM MgCl2, 5 μM dTTP, 0.15 μCi [^3H] dTTP, 5 μg/ml poly (rA) pre annealed to 2.5 μg/ml oligo (dT)16 and a range of inhibitor concentrations in a final concentration of 10% DMSO. Reactions were initiated by adding 4 nM HIV-1 RT and after incubation at 37° C. for 30 min, they were stopped by the addition of 50 μl ice cold 20% TCA and allowed to precipitate at 4° C. for 30 min. The precipitates were collected by applying vacuum to the plate and sequentially washing with 3×200 μl of 10% TCA and 2×200 μl 70% ethanol. Finally, the plates were dried and radioactivity counted in a Packard TopCounter after the addition of 25 μl scintillation fluid per well. IC50's were calculated by plotting % inhibition versus log10 inhibitor concentrations.
As for `O=c1[nH]nc(Cc2ccc(Cl)c(Oc3ccccc3Cl)c2)s1` [Compound 4, 5-[4-Chloro-3-(2-chloro-phenoxy)-benzyl]-3H-[1,3,4]thiadiazol-2-one], the IC50 came to 195 nM.

In the case of `CCn1c(Cc2ccc(Cl)c(Oc3ccccc3Cl)c2)n[nH]c1=O` [Compound 7, 5-[4-Chloro-3-(2-chloro-phenoxy)-benzyl]-4-ethyl-2,4-dihydro-[1,2,4]triazol-3-one], the IC50 was found to be 447 nM.

In the case of `Cn1c(Cc2ccc(Cl)c(Oc3cccc(Cl)c3)c2)n[nH]c1=O` [Compound 8, 5-[4-Chloro-3-(3-chloro-phenoxy)-benzyl]-4-methyl-2,4-dihydro-[1,2,4]triazol-3-one], the IC50 amounted to 286 nM.

As to `CCn1c(Cc2ccc(Cl)c(Oc3cccc(Cl)c3)c2)n[nH]c1=O` [Compound 9, 5-[4-Chloro-3-(3-chloro-phenoxy)-benzyl]-4-ethyl-2,4-dihydro-[1,2,4]triazol-3-one], the IC50 turned out to be 444 nM.

The term IC50 denotes the point on the concentration scale where inhibition reaches its midpoint.

For the origin of these results see patent US7208509B2, “Non-nucleoside reverse transcriptase inhibitors” (Roche Palo Alto LLC, priority 2003, dated 2007).
